Test results taken from US5756120A, “Antibiotic formulation and use for drug resistant infections” (NeXstar Pharmaceuticals, Inc., priority 1995, dated 1998).
Several values for one entry are separate records, joined by “and”; a condition that tells them apart may be missing. Identical values can stand only once.

Columns and labels:
MAC (101, type 1) [1] = experiment: MAC infected beige mice, experiment 1 (daily for 5 days), tissue cfu; assay type: in vivo, Beige mice (C57B1/6bg^j /bg^j)
Protocol: (§1) The testing of liposome encapsulated amikacin for the treatment of MAC was performed using a murine model. Beige mice (C57B1/6bg^j /bg^j) were infected with MAC (101, type 1). The mice were infected by injection of 1×10^7 Colony Forming Units (cfu) in the mouse tail vein (i.v.). Three experiments were performed. In the first experiment, 40, 80 and 120 milligrams of amikacin (liposomal and free) per kilogram of mouse body-weight was given i.v. daily for 5 days, beginning 7 days after infection. The animals were sacrificed 5 days after treatment was completed and the liver, lung and spleen tissue were plated. Quantitation of organisms in liver, spleen and lung tissue was performed. The cfu were determined by growth on Middlebrook 7h11 agar plates. Untreated and empty liposomes were used as controls.
The liposomes were prepared as in Example 1. This experiment was performed in two identical parts. The liposomes in the first part were of an average size of 49.8 nm and the average size of the liposomes in the second part were 73.7 nm (mean diameter). The amikacin concentration was either 15.0 mg/ml or 13.21 mg/ml and the total lipid concentration was either 121 mg/ml or 55.7 mg/ml respectively (drug to lipid ratios: 0.123, 0.24). Free drug for all experiments was prepared in the same buffer that the liposomal formulations were contained in.

MAC (101, type 1) [2] = experiment: MAC infected beige mice, experiment 2 (three times/week for 21 days), tissue cfu; assay type: in vivo, Beige mice (C57B1/6bg^j /bg^j)
Protocol: as §1
Another experiment was carried out as above (also in two parts) except that the drug therapy was started 5 days after infection. The drug was given i.v. three times/week for 21 days. The mice were sacrificed 1-2 days after the treatment stopped. […] The lung tissues were not tested. Similar controls were used as above. The liposomes were prepared as described in Example 1. The average size of the liposomes was 66.5 nm or 79.6 nm (mean diameter). The concentration of the amikacin was either 15.98 mg/ml or 6.74 mg/ml. The total lipid was measure only the second part of the experiment and it was 27.0 mg/ml (drug to lipid ratio: 1:4.167).

MAC (101, type 1) [3] = experiment: MAC infected beige mice, experiment 3 (higher doses), tissue cfu; assay type: in vivo, Beige mice (C57B1/6bg^j /bg^j); details: 120 mg/kg i.v. three times/week for 21 days
Protocol: as §1
Another experiment was carried out as above (also in two parts) except that the drug therapy was started 5 days after infection. The drug was given i.v. three times/week for 21 days. The mice were sacrificed 1-2 days after the treatment stopped. During the treatment period, a group of mice received 40 mg/Kg, 80 mg/kg, and 150 mg/kg of free amikacin and another group received 40 mg/kg, 80 mg/kg, and 160 mg/kg of liposomal amikacin. The lung tissues were not tested. Similar controls were used as above. The liposomes were prepared as described in Example 1. The average size of the liposomes was 66.5 nm or 79.6 nm (mean diameter). The concentration of the amikacin was either 15.98 mg/ml or 6.74 mg/ml. The total lipid was measure only the second part of the experiment and it was 27.0 mg/ml (drug to lipid ratio: 1:4.167).
A third experiment was carried out as in the second experiment except that the mice treated with the liposomal amikacin received 120 mg/kg, 240 mg/kg and 320 mg/kg doses and the mice treated with the free amikacin received only 120 mg/kg doses. The liposomes were prepared as in Example 2 where the average size of the liposomes were 81.8 nm (median diameter). The amikacin concentration was 32.02 mg/ml and the total lipid concentration was 91.5 mg/ml (drug to lipid ratio: 1:2.941).

Pseudomonas aeruginosa = experiment: Efficacy and toxicity in Pseudomonas infected mice (mortality); assay type: in vivo, CF-1 mice; details: two doses
Protocol: The efficacy and toxicity of liposomal amikacin in Pseudomonas infected mice was tested. CF-1 mice were used (females, 6-8 weeks old). The mice were obtained from Jackson Labs. A clinical isolate of Pseudomonas aeruginosa was obtained on a Mueller Hinton/MacConkey blood agar plate. The organisms were transferred to a Mueller Hinton plate and grown for 24 hours. Colonies were transferred to saline and grown for 48 hours. The samples were frozen in saline containing 15% fetal calf serum at 1×10^8 organisms/ml (MacFarland Standard). The colonies were stored at -70° C. The colonies were thawed and grown in a Mueller Hinton plate for 24 hours. The bacteria were adjusted to 8×10^6 organisms/ml in saline containing talc (62.5 mg/ml) and 1 ml was injected intraperitoneal. A culture of inoculum on MH agar for 24 hours determined that approximately 7×10^6 cfu were delivered per mouse. Liposomal amikacin and empty liposomes were prepared as set out in Example 2. […] The lipid concentration was 95.31 mg/ml and the amikacin concentration was 23.54 mg/ml (0.25 drug/lipid ratio). The pH of the solution containing the formulation was 7.31. […] The concentration of the free amikacin solution was 23.54 mg/ml. The pH of the solution containing the liposomes was 7.33.
Mice were treated with 40 mg/kg (drug per body-weight), 80 mg/kg, 120 mg/kg and 240 mg/kg of liposomal amikacin. Mice were also treated with 40 mg/kg, 80 mg/kg, and 120 mg/kg of free amikacin. The drugs were administered intravenously in the caudal vein. Two doses were given; one at four hours after infection and one at twenty-four hours after infection.

[4] = assay type: in vivo, mouse (C57B1/6); details: 100 mg/kg i.v.; 6 hours
Protocol: Amidacin content was measured in mouse (C57B1/6, females 2-3 months old) plasma after injection (i.v.) of free amikacin or liposomal amikacin (100 mg/kg). Liposomal amikacin was prepared as described in Example 2. Blood samples were obtained at various time intervals. The samples were collected by removing 100 microliters of blood, retroorbitally, from nonanesthetized mice. The samples were collected in heparinized capillary pipets which were plugged with modeling clay. The samples were centrifuged at 3250 rpm (20 cm rotor) for 10 minutes. The samples were analyzed using a radioimmunoassay (Diagnostic Products). The liposomal amikacin formulation contained liposomes with an average size of 43.6 nm (median diameter). The amikacin concentration was 10.09 mg/ml and the total lipid concentration was 56.8 mg/ml (drug to lipid ratio 1:5.556).

[5] = test system: M. tuberculosis drug susceptible strain H37RV; experiment: Intracellular activity against drug susceptible M. tuberculosis (H37RV) in human monocyte derived macrophages; assay type: cell-based; details: for CFU (1 × 10^3): duplicate values
[6] = test system: Mycobacterium tuberculosis; details: background statement; cited from earlier work
[7] = 150 mg/kg; known in the art; cited from earlier work
[8] = 120 mg/kg i.v. daily for 5 days
[9] = 40 mg/kg i.v. three times/week for 21 days
[10] = 80 mg/kg i.v. three times/week for 21 days
[11] = 120 mg/kg i.v. three times/week for 21 days

SMILES: NCC[C@H](O)C(=O)N[C@@H]1C[C@H](N)[C@@H](O[C@H]2O[C@H](CN)[C@@H](O)[C@H](O)[C@H]2O)[C@H](O)[C@H]1O[C@H]1O[C@H](CO)[C@@H](O)[C@H](N)[C@H]1O [amikacin]
- Liver cfu/g (MAC (101, type 1) [1]; 40 mg/kg i.v. daily for 5 days): 1.41 × 10^8 cfu/g
- Liver log cfu/g (MAC (101, type 1) [1]; 40 mg/kg i.v. daily for 5 days): 8.15 log cfu/g
- Spleen cfu/g (MAC (101, type 1) [1]; 40 mg/kg i.v. daily for 5 days): 4.08 × 10^8 cfu/g
- Spleen log cfu/g (MAC (101, type 1) [1]; 40 mg/kg i.v. daily for 5 days): 8.61 log cfu/g
- lung cfu/gram (MAC (101, type 1) [1]; 40 mg/kg i.v. daily for 5 days): 1.44×10^6 cfu/gram
- lung log (MAC (101, type 1) [1]; 40 mg/kg i.v. daily for 5 days): 6.16 log
- Liver cfu/g (MAC (101, type 1) [1]; 80 mg/kg i.v. daily for 5 days): 7.79 × 10^7 cfu/g
- Liver log cfu/g (MAC (101, type 1) [1]; 80 mg/kg i.v. daily for 5 days): 7.89 log cfu/g
- Spleen cfu/g (MAC (101, type 1) [1]; 80 mg/kg i.v. daily for 5 days): 4.82 × 10^8 cfu/g
- Spleen log cfu/g (MAC (101, type 1) [1]; 80 mg/kg i.v. daily for 5 days): 8.68 log cfu/g
- lung cfu/gram (MAC (101, type 1) [1]; 80 mg/kg i.v. daily for 5 days): 1.29×10^6 cfu/gram
- lung log (MAC (101, type 1) [1]; 80 mg/kg i.v. daily for 5 days): 6.11 log
- Liver cfu/g (MAC (101, type 1) [1]; [8]): 5.65 × 10^7 cfu/g
- Liver log cfu/g (MAC (101, type 1) [1]; [8]): 7.75 log cfu/g
- Spleen cfu/g (MAC (101, type 1) [1]; [8]): 3.46 × 10^8 cfu/g
- Spleen log cfu/g (MAC (101, type 1) [1]; [8]): 8.54 log cfu/g
- lung cfu/gram (MAC (101, type 1) [1]; [8]): 9.94×10^5 cfu/gram
- lung log (MAC (101, type 1) [1]; [8]): 6.00 log
- Liver cfu/g (MAC (101, type 1) [2]; [9]): 1.09 × 10^8 cfu/g
- Liver log cfu (MAC (101, type 1) [2]; [9]): 8.04 log cfu
- Spleen cfu/g (MAC (101, type 1) [2]; [9]): 5.76 × 10^8 cfu/g
- Spleen log cfu (MAC (101, type 1) [2]; [9]): 8.76 log cfu
- Liver cfu/g (MAC (101, type 1) [2]; [10]): 3.67 × 10^7 cfu/g
- Liver log cfu (MAC (101, type 1) [2]; [10]): 7.56 log cfu
- Spleen cfu/g (MAC (101, type 1) [2]; [10]): 2.02 × 10^8 cfu/g
- Spleen log cfu (MAC (101, type 1) [2]; [10]): 8.31 log cfu
- Liver cfu/g (MAC (101, type 1) [2]; [11]): 3.15 × 10^7 cfu/g
- Liver log cfu (MAC (101, type 1) [2]; [11]): 7.50 log cfu
- Spleen cfu/g (MAC (101, type 1) [2]; [11]): 1.48 × 10^8 cfu/g
- Spleen log cfu (MAC (101, type 1) [2]; [11]): 8.17 log cfu
- Liver cfu/g (MAC (101, type 1) [3]): 6.10 × 10^7 cfu/g
- Liver log cfu/g (MAC (101, type 1) [3]): 7.78 log cfu/g
- Spleen cfu/g (MAC (101, type 1) [3]): 2.13 × 10^8 cfu/g
- Spleen log cfu/g (MAC (101, type 1) [3]): 8.33 log cfu/g
- Mortality % (Pseudomonas aeruginosa; 40 mg/kg i.v.): 25%
- Mortality (Pseudomonas aeruginosa; 40 mg/kg i.v., 24 hours post infection): 1/4
- Mortality (Pseudomonas aeruginosa; 40 mg/kg i.v., 30 hours post infection): 1/4
- Mortality (Pseudomonas aeruginosa; 40 mg/kg i.v., 48 hours post infection): 1/4
- Mortality (Pseudomonas aeruginosa; 40 mg/kg i.v., 72 hours post infection): 1/4
- Mortality % (Pseudomonas aeruginosa; 80 mg/kg i.v.): 0%
- Mortality (Pseudomonas aeruginosa; 80 mg/kg i.v., 24 hours post infection): 0/6
- Mortality (Pseudomonas aeruginosa; 80 mg/kg i.v., 30 hours post infection): 0/6
- Mortality (Pseudomonas aeruginosa; 80 mg/kg i.v., 48 hours post infection): 0/6
- Mortality (Pseudomonas aeruginosa; 80 mg/kg i.v., 72 hours post infection): 0/6
- Mortality % (Pseudomonas aeruginosa; 120 mg/kg i.v.): 0%
- Mortality (Pseudomonas aeruginosa; 120 mg/kg i.v., 24 hours post infection): 0/6
- Mortality (Pseudomonas aeruginosa; 120 mg/kg i.v., 30 hours post infection): 0/6
- Mortality (Pseudomonas aeruginosa; 120 mg/kg i.v., 48 hours post infection): 0/6
- Mortality (Pseudomonas aeruginosa; 120 mg/kg i.v., 72 hours post infection): 0/6
- Average Concentration (plasma amikacin) [4]: none detected
- inhibition or killing of drug susceptible M. tuberculosis ([5]; 1 μg/ml): inhibited the growth of the bacteria
- Avg. log CFU ([5]; 1 μg/ml, day 4): 4.7 log CFU
- CFU (1 × 10^3) ([5]; 1 μg/ml, day 4): 50 1 × 10^3 CFU and 60 1 × 10^3 CFU
- Avg. log CFU ([5]; 1 μg/ml, day 7): 5.9 log CFU
- CFU (1 × 10^3) ([5]; 1 μg/ml, day 7): 900 1 × 10^3 CFU and 800 1 × 10^3 CFU
- inhibition or killing of drug susceptible M. tuberculosis ([5]; 2 μg/ml): inhibition
- Avg. log CFU ([5]; 2 μg/ml, day 4): 4.3 log CFU
- CFU (1 × 10^3) ([5]; 2 μg/ml, day 4): 20 1 × 10^3 CFU
- Avg. log CFU ([5]; 2 μg/ml, day 7): 4.7 log CFU
- CFU (1 × 10^3) ([5]; 2 μg/ml, day 7): 40 1 × 10^3 CFU and 50 1 × 10^3 CFU
- Avg. log CFU ([5]; 4 μg/ml, day 4): 3.7 log CFU
- inhibition or killing of drug susceptible M. tuberculosis ([5]; 4 μg/ml, day 4): obtained killing at day 4
- CFU (1 × 10^3) ([5]; 4 μg/ml, day 4): 4 1 × 10^3 CFU
- Avg. log CFU ([5]; 4 μg/ml, day 7): 3.4 log CFU
- CFU (1 × 10^3) ([5]; 4 μg/ml, day 7): 1.5 1 × 10^3 CFU and 3 1 × 10^3 CFU
- effectiveness against Mycobacterium tuberculosis [6]: effective
- lethality in mice [7]: will kill many of the mice injected
